Measurements: US6339042B1, “Herbicidal N-cyclohexadienyl heteroaryloxyacetamides” (American Cyanamid Co., priority 1999, dated 2002)

What was measured:
Settings in all cases: three weeks after treatment
Lolium perenne [1] = assay: Post-emergence herbicidal evaluation, LOLPE
Galium aparine [2] = assay: Post-emergence herbicidal evaluation, GALAP
Description: (§2) The compounds of the invention are tested for pre- and post-emergence herbicidal activity.
(§3) Each pot is examined three weeks after treatment and phytotoxicity is assessed according to the rating system set forth below.
(§4) These acetone solutions are diluted with water and the resulting formulations applied at dosage levels equivalent of about 0.4 to 0.1 kg per hectare of test compound per pot. After spraying the plants are placed on greenhouse benches and are cared for in the usual manner, commensurate with conventional greenhouse practices.

Oryza sativum [3] = assay: Pre-emergence herbicidal evaluation, ORYSA; assay type: in vivo
Text: (§1) The treated pots are then placed on greenhouse benches, watered and cared for in accordance with conventional greenhouse procedures.

Glycine max [4] = assay: Pre-emergence herbicidal evaluation, GLXMA; assay type: in vivo
Text: as §1

Apera spica venti [5] = assay: Post-emergence herbicidal evaluation, APESV
Setaria viridis [6] = assay: Post-emergence herbicidal evaluation, SETVI
Description: as §2, §3, §4

Hordeum vulgare [7] = assay: Post-emergence herbicidal evaluation, HORVW
Zea mays [8] = assay: Pre-emergence herbicidal evaluation, ZEAMX; assay type: in vivo
Text: as §1

Amaranthus tuberculatus [9] = assay: Post-emergence herbicidal evaluation, AMATA; assay type: in vivo
Glycine max [10] = assay: Post-emergence herbicidal evaluation, GLXMA
Description: as §3, §4

Amaranthus tuberculatus [11] = assay: Pre-emergence herbicidal evaluation, AMATA; assay type: in vivo
Text: as §1

Setaria viridis [12] = assay: Pre-emergence herbicidal evaluation, SETVI; assay type: in vivo
Text: as §1

Triticum aestivum [13] = assay: Pre-emergence herbicidal evaluation, TRZAW; assay type: in vivo
Text: as §1

Oryza sativum [14] = assay: Post-emergence herbicidal evaluation, ORYSA
Alopecurus myosuroides [15] = assay: Post-emergence herbicidal evaluation, ALOMY
Triticum aestivum [16] = assay: Post-emergence herbicidal evaluation, TRZAW
Description: as §3, §4

Galium aparine [17] = assay: Pre-emergence herbicidal evaluation, GALAP; assay type: in vivo
Text: as §1

Zea mays [18] = assay: Post-emergence herbicidal evaluation, ZEAMX
Echinochloa crus-galli [19] = assay: Pre-emergence herbicidal evaluation, ECHCG; assay type: in vivo
Text: as §1

Echinochloa crus-galli [20] = assay: Post-emergence herbicidal evaluation, ECHCG
Apera spica venti [21] = assay: Pre-emergence herbicidal evaluation, APESV; assay type: in vivo
Text: as §1

Hordeum vulgare [22] = assay: Pre-emergence herbicidal evaluation, HORVW; assay type: in vivo
Text: as §1

Lolium perenne [23] = assay: Pre-emergence herbicidal evaluation, LOLPE; assay type: in vivo
Text: as §1

Alopecurus myosuroides [24] = assay: Pre-emergence herbicidal evaluation, ALOMY; assay type: in vivo
Text: as §1

With `CC1=CC(N(C(=O)COc2nnc(C(F)(F)F)s2)C(C)C)=CC(C)(C)C1` [Example 4] the “phytotoxicity rating LOLPE” value (Lolium perenne [1]; 0.100 kg/ha) was 5 (5 - Definite injury), the “phytotoxicity rating LOLPE” value (Lolium perenne [1]; 0.200 kg/ha) was 7 (7 - Good herbicidal effect) and the “phytotoxicity rating LOLPE” value (Lolium perenne [1]; 0.400 kg/ha) was 8 (8 - Approaching complete kill). The “phytotoxicity rating GALAP” value (Galium aparine [2]; 0.100 kg/ha) was 0 (0 - No effect), the “phytotoxicity rating GALAP” value (Galium aparine [2]; 0.200 kg/ha) was 0 (0 - No effect) and the “phytotoxicity rating GALAP” value (Galium aparine [2]; 0.400 kg/ha) was 2 (2 - Slight effect). The “phytotoxicity rating ORYSA” value (Oryza sativum [3]; 0.100 kg/ha) was 3 (3 - Moderate effect), the “phytotoxicity rating ORYSA” value (Oryza sativum [3]; 0.200 kg/ha) was 4 (4 - Injury) and the “phytotoxicity rating ORYSA” value (Oryza sativum [3]; 0.400 kg/ha) was 5 (5 - Definite injury). For the same compound, the “phytotoxicity rating ORYSA” value (Oryza sativum [3]; 0.800 kg/ha) was 5 (5 - Definite injury), the “phytotoxicity rating GLXMA” value (Glycine max [4]; 0.100 kg/ha) was 0 (0 - No effect) and the “phytotoxicity rating GLXMA” value (Glycine max [4]; 0.200 kg/ha) was 0 (0 - No effect). The “phytotoxicity rating GLXMA” value (Glycine max [4]; 0.400 kg/ha) was 0 (0 - No effect), the “phytotoxicity rating GLXMA” value (Glycine max [4]; 0.800 kg/ha) was 1 (1 - Trace effect) and the “phytotoxicity rating APESV” value (Apera spica venti [5]; 0.100 kg/ha) was 2 (2 - Slight effect). The “phytotoxicity rating APESV” value (Apera spica venti [5]; 0.200 kg/ha) was 8 (8 - Approaching complete kill), the “phytotoxicity rating APESV” value (Apera spica venti [5]; 0.400 kg/ha) was 8 (8 - Approaching complete kill) and the “phytotoxicity rating SETVI” value (Setaria viridis [6]; 0.100 kg/ha) was 3 (3 - Moderate effect). The “phytotoxicity rating SETVI” value (Setaria viridis [6]; 0.200 kg/ha) was 5 (5 - Definite injury), the “phytotoxicity rating SETVI” value (Setaria viridis [6]; 0.400 kg/ha) was 5 (5 - Definite injury) and the “phytotoxicity rating HORVW” value (Hordeum vulgare [7]; 0.100 kg/ha) was 0 (0 - No effect). The “phytotoxicity rating HORVW” value (Hordeum vulgare [7]; 0.200 kg/ha) was 1 (1 - Trace effect), the “phytotoxicity rating HORVW” value (Hordeum vulgare [7]; 0.400 kg/ha) was 2 (2 - Slight effect) and the “phytotoxicity rating ZEAMX” value (Zea mays [8]; 0.100 kg/ha) was 0 (0 - No effect). The “phytotoxicity rating ZEAMX” value (Zea mays [8]; 0.200 kg/ha) was 1 (1 - Trace effect), the “phytotoxicity rating ZEAMX” value (Zea mays [8]; 0.400 kg/ha) was 1 (1 - Trace effect) and the “phytotoxicity rating ZEAMX” value (Zea mays [8]; 0.800 kg/ha) was 4 (4 - Injury). The “phytotoxicity rating AMATA” value (Amaranthus tuberculatus [9]; 0.100 kg/ha) was 1 (1 - Trace effect), the “phytotoxicity rating AMATA” value (Amaranthus tuberculatus [9]; 0.200 kg/ha) was 1 (1 - Trace effect) and the “phytotoxicity rating AMATA” value (Amaranthus tuberculatus [9]; 0.400 kg/ha) was 4 (4 - Injury). The “phytotoxicity rating GLXMA” value (Glycine max [10]; 0.100 kg/ha) was 2 (2 - Slight effect), the “phytotoxicity rating GLXMA” value (Glycine max [10]; 0.200 kg/ha) was 4 (4 - Injury) and the “phytotoxicity rating GLXMA” value (Glycine max [10]; 0.400 kg/ha) was 6 (6 - Herbicidal effect). The “phytotoxicity rating AMATA” value (Amaranthus tuberculatus [11]; 0.100 kg/ha) was 6 (6 - Herbicidal effect), the “phytotoxicity rating AMATA” value (Amaranthus tuberculatus [11]; 0.200 kg/ha) was 6 (6 - Herbicidal effect) and the “phytotoxicity rating AMATA” value (Amaranthus tuberculatus [11]; 0.400 kg/ha) was 8 (8 - Approaching complete kill). For the same compound, the “phytotoxicity rating AMATA” value (Amaranthus tuberculatus [11]; 0.800 kg/ha) was 8 (8 - Approaching complete kill), the “phytotoxicity rating SETVI” value (Setaria viridis [12]; 0.100 kg/ha) was 6 (6 - Herbicidal effect) and the “phytotoxicity rating SETVI” value (Setaria viridis [12]; 0.200 kg/ha) was 6 (6 - Herbicidal effect). For the same compound, the “phytotoxicity rating SETVI” value (Setaria viridis [12]; 0.400 kg/ha) was 6 (6 - Herbicidal effect), the “phytotoxicity rating SETVI” value (Setaria viridis [12]; 0.800 kg/ha) was 9 (9 - Complete kill) and the “phytotoxicity rating TRZAW” value (Triticum aestivum [13]; 0.100 kg/ha) was 0 (0 - No effect). The “phytotoxicity rating TRZAW” value (Triticum aestivum [13]; 0.200 kg/ha) was 0 (0 - No effect), the “phytotoxicity rating TRZAW” value (Triticum aestivum [13]; 0.400 kg/ha) was 1 (1 - Trace effect) and the “phytotoxicity rating TRZAW” value (Triticum aestivum [13]; 0.800 kg/ha) was 4 (4 - Injury). The “phytotoxicity rating ORYSA” value (Oryza sativum [14]; 0.100 kg/ha) was 0 (0 - No effect), the “phytotoxicity rating ORYSA” value (Oryza sativum [14]; 0.200 kg/ha) was 1 (1 - Trace effect) and the “phytotoxicity rating ORYSA” value (Oryza sativum [14]; 0.400 kg/ha) was 1 (1 - Trace effect). The “phytotoxicity rating ALOMY” value (Alopecurus myosuroides [15]; 0.100 kg/ha) was 4 (4 - Injury), the “phytotoxicity rating ALOMY” value (Alopecurus myosuroides [15]; 0.200 kg/ha) was 8 (8 - Approaching complete kill) and the “phytotoxicity rating ALOMY” value (Alopecurus myosuroides [15]; 0.400 kg/ha) was 8 (8 - Approaching complete kill). For the same compound, the “phytotoxicity rating TRZAW” value (Triticum aestivum [16]; 0.100 kg/ha) was 0 (0 - No effect), the “phytotoxicity rating TRZAW” value (Triticum aestivum [16]; 0.200 kg/ha) was 1 (1 - Trace effect) and the “phytotoxicity rating TRZAW” value (Triticum aestivum [16]; 0.400 kg/ha) was 3 (3 - Moderate effect). For the same compound, the “phytotoxicity rating GALAP” value (Galium aparine [17]; 0.100 kg/ha) was 0 (0 - No effect), the “phytotoxicity rating GALAP” value (Galium aparine [17]; 0.200 kg/ha) was 0 (0 - No effect) and the “phytotoxicity rating GALAP” value (Galium aparine [17]; 0.400 kg/ha) was 2 (2 - Slight effect). The “phytotoxicity rating GALAP” value (Galium aparine [17]; 0.800 kg/ha) was 3 (3 - Moderate effect), the “phytotoxicity rating ZEAMX” value (Zea mays [18]; 0.100 kg/ha) was 0 (0 - No effect) and the “phytotoxicity rating ZEAMX” value (Zea mays [18]; 0.200 kg/ha) was 0 (0 - No effect). The “phytotoxicity rating ZEAMX” value (Zea mays [18]; 0.400 kg/ha) was 0 (0 - No effect), the “phytotoxicity rating ECHCG” value (Echinochloa crus-galli [19]; 0.100 kg/ha) was 6 (6 - Herbicidal effect) and the “phytotoxicity rating ECHCG” value (Echinochloa crus-galli [19]; 0.200 kg/ha) was 9 (9 - Complete kill). The “phytotoxicity rating ECHCG” value (Echinochloa crus-galli [19]; 0.400 kg/ha) was 9 (9 - Complete kill), the “phytotoxicity rating ECHCG” value (Echinochloa crus-galli [19]; 0.800 kg/ha) was 9 (9 - Complete kill) and the “phytotoxicity rating ECHCG” value (Echinochloa crus-galli [20]; 0.100 kg/ha) was 3 (3 - Moderate effect). The “phytotoxicity rating ECHCG” value (Echinochloa crus-galli [20]; 0.200 kg/ha) was 6 (6 - Herbicidal effect), the “phytotoxicity rating ECHCG” value (Echinochloa crus-galli [20]; 0.400 kg/ha) was 6 (6 - Herbicidal effect) and the “phytotoxicity rating APESV” value (Apera spica venti [21]; 0.100 kg/ha) was 9 (9 - Complete kill). The “phytotoxicity rating APESV” value (Apera spica venti [21]; 0.200 kg/ha) was 9 (9 - Complete kill), the “phytotoxicity rating APESV” value (Apera spica venti [21]; 0.400 kg/ha) was 9 (9 - Complete kill) and the “phytotoxicity rating APESV” value (Apera spica venti [21]; 0.800 kg/ha) was 9 (9 - Complete kill). The “phytotoxicity rating HORVW” value (Hordeum vulgare [22]; 0.100 kg/ha) was 0 (0 - No effect), the “phytotoxicity rating HORVW” value (Hordeum vulgare [22]; 0.200 kg/ha) was 0 (0 - No effect) and the “phytotoxicity rating HORVW” value (Hordeum vulgare [22]; 0.400 kg/ha) was 1 (1 - Trace effect). For the same compound, the “phytotoxicity rating HORVW” value (Hordeum vulgare [22]; 0.800 kg/ha) was 4 (4 - Injury), the “phytotoxicity rating LOLPE” value (Lolium perenne [23]; 0.100 kg/ha) was 8 (8 - Approaching complete kill) and the “phytotoxicity rating LOLPE” value (Lolium perenne [23]; 0.200 kg/ha) was 9 (9 - Complete kill). The “phytotoxicity rating LOLPE” value (Lolium perenne [23]; 0.400 kg/ha) was 9 (9 - Complete kill), the “phytotoxicity rating LOLPE” value (Lolium perenne [23]; 0.800 kg/ha) was 9 (9 - Complete kill) and the “phytotoxicity rating ALOMY” value (Alopecurus myosuroides [24]; 0.100 kg/ha) was 7 (7 - Good herbicidal effect). The “phytotoxicity rating ALOMY” value (Alopecurus myosuroides [24]; 0.200 kg/ha) was 7 (7 - Good herbicidal effect), the “phytotoxicity rating ALOMY” value (Alopecurus myosuroides [24]; 0.400 kg/ha) was 7 (7 - Good herbicidal effect) and the “phytotoxicity rating ALOMY” value (Alopecurus myosuroides [24]; 0.800 kg/ha) was 9 (9 - Complete kill).
